Results on 2 molecules are retold here after patent publication US4224442A, “7-Ureido acetamido substituted cephalosporin antibiotics” (Eli Lilly and Company, priority 1975, dated 1980).

Each structure is given as a SMILES string. Values after ≈ are worked out from the molar mass of the structure shown.

For data set [1], the system named is Staphylococcus aureus. Nature of the data set: standard gear agar dilution method, MIC. Type of data set: cell-based. The source says:
In the standard gear agar dilution method, the MIC values for the above test compounds A through E against Staphylococcus aureus were as follows: A, 2; B, 1; C, 0.5; D, 2; and E, 0.5 mcg./m1.
(Agar dilution tests growth on a series of plates holding different concentrations.)

Data set [2] relates to Aerobacter aerogenes. Put plainly: Gradient Plate in vitro method, MIC. It is filed as cell-based. As to conditions: Klebsiella aerogenes, read-out: Minimum Inhibitory Concentration. The text has this:
(§1) The antibiotic activity of the cephalosporin compounds of the formula I is illustrated by the data presented in Table I for representative compounds. The values in the table are the minimum inhibitory concentrations (MIC) for the test compounds against the indicated microorganisms. The MIC values were obtained in the Gradient Plate in vitro method for determining antibiotic activity.
(§2) Minimum Inhibitory Concentration (mcg./ml.)

Data set [3] relates to Salmonella heidelberg. Nature of the data set: Gradient Plate in vitro method, MIC. Type of data set: cell-based. As to conditions: Salmonella enterica, read-out: Minimum Inhibitory Concentration.
From the text: as §1, §2

The test system of data set [4] is Pseudomonas aeruginosa. Put plainly: Gradient Plate in vitro method, MIC. Type of data set: cell-based. As to conditions: read-out: Minimum Inhibitory Concentration.
From the text: as §1, §2

Data set [5] relates to Shigella sp. Nature of the data set: Gradient Plate in vitro method, MIC. It is filed as cell-based. As to conditions: read-out: Minimum Inhibitory Concentration.
From the text: as §1, §2

Data set [6] deals with Klebsiella pneumoniae. Nature of the data set: Gradient Plate in vitro method, MIC. Type of data set: cell-based. As to conditions: read-out: Minimum Inhibitory Concentration.
From the text: as §1, §2

Data set [7] relates to Escherichia coli. Put plainly: Gradient Plate in vitro method, MIC. Type of data set: cell-based. As to conditions: read-out: Minimum Inhibitory Concentration. The text has this: (§3) The values in the table are the minimum inhibitory concentrations (MIC) for the test compounds against the indicated microorganisms. The MIC values were obtained in the Gradient Plate in vitro method for determining antibiotic activity.

Data set [8] has as its system Serratia marcescens. Nature of the data set: Gradient Plate in vitro method, MIC. Type of data set: cell-based. As to conditions: read-out: Minimum Inhibitory Concentration.
From the text: as §3

Data set [9] deals with V32. Nature of the data set: Gradient Plate in vitro method, MIC. Type of data set: cell-based, penicillin resistant Staphyloccus. As to conditions: V32, penicillin resistant Staphylococcus, read-out: Minimum Inhibitory Concentration.
From the text: as §1, §2
(§4) ^1 Test organisms V41, V32 and V84 are penicillin resistant
(§5) Staphyloccus, X400 is a methicillin resistant Staphylococcus.

Data set [10] deals with V84. Put plainly: Gradient Plate in vitro method, MIC. Type of data set: cell-based, penicillin resistant Staphyloccus. As to conditions: V84, penicillin resistant Staphylococcus, read-out: Minimum Inhibitory Concentration.
From the text: as §1, §2, §4, §5

For data set [11], the system named is V41. Nature of the data set: Gradient Plate in vitro method, MIC. It is filed as cell-based, penicillin resistant Staphyloccus. As to conditions: V41, penicillin resistant Staphylococcus, read-out: Minimum Inhibitory Concentration.
From the text: as §1, §2, §4, §5

In data set [12] the test system is Escherichia coli. Nature of the data set: in vivo effective dose in experimental infections in mice. As to conditions: ip, E. coli infection in mice. The text has this: (§6) The in vivo effective dose […] in mg./kg. for representative antibiotics of the formula I has been determined in experimental infections in mice. Table II lists the ED50 dose vs. Streptococcus pyogenes and Escherichia coli infections. In the table, the antibiotics are identified with the R", R', and R1 -R3 terms of Formula I. |Test Compound ED50 (mg/kg × 2) i.p.

Data set [13] relates to Streptococcus pyogenes. The data set is described as above. As to conditions: ip, S. pyogenes infection in mice.
From the text: as §6

For data set [14], the system named is X400. Put plainly: Gradient Plate in vitro method, MIC. Type of data set: cell-based. As to conditions: X400, methicillin resistant Staphylococcus, read-out: Minimum Inhibitory Concentration.
From the text: as §1, §2, §4, §5

Data set [15] can be described thus: Electrometric titration in 66 percent DMF. As to conditions: 66% dmf. It is filed as physicochemical.

Regarding `CNC(=O)N(C)C(=O)NC(C(=O)NC1C(=O)N2C(C(=O)O)=C(COC(C)=O)CSC12)c1ccccc1` (stereo not drawn) [Test Compound C, 7-[α-(3-methylcarbamoyl-3-methyl-1-ureido)-α-phenylacetamido]-3-acetoxymethyl-3-cephem-4-carboxylic acid], the MIC in data set [1] is 0.5 µg/mL (≈ 0.962 µM); in data set [2], 14 µg/mL (≈ 26.9 µM); in data set [3] it was 13 µg/mL (≈ 25 µM); in data set [4], 80 µg/mL (≈ 154 µM); in data set [5], 7 µg/mL (≈ 13.5 µM); in [6], 14 µg/mL (≈ 26.9 µM). The MIC was 11 µg/mL (≈ 21.2 µM) in [7]; 80 µg/mL (≈ 154 µM) in [8]; 1 µg/mL (≈ 1.92 µM) in data set [9]; 0.5 µg/mL (≈ 0.962 µM) in data set [10]; 1 µg/mL (≈ 1.92 µM) in data set [11]; greater than 20 µg/mL in data set [14]. The ED50 in data set [12] and in data set [13] was less than 7.2 mg/kg in each case.
For `CNC(=O)N(C)C(=O)NC(C(=O)NC1C(=O)N2C(C(=O)O)=C(CSc3nnc(C)s3)CSC12)c1ccc(O)cc1` (stereo not drawn) [Test Compound B, 7-[α-(3-methylcarbamoyl-3-methyl-1-ureido)-α-(4-hydroxyphenyl)acetamido]-3-(5-methyl-1,3,4-thiadiazole-2-ylthiomethyl)-3-cephem-4-carboxylic acid], the MIC in [1] was determined as 1 µg/mL (≈ 1.65 µM); in data set [2], 4 µg/mL (≈ 6.58 µM); in data set [3], 2 µg/mL (≈ 3.29 µM); in data set [4], 28 µg/mL (≈ 46.1 µM); in data set [5], 3 µg/mL (≈ 4.94 µM); in data set [6] it was 4 µg/mL (≈ 6.58 µM). For the same molecule, the MIC in data set [7] is 4 µg/mL (≈ 6.58 µM); in data set [8], 19 µg/mL (≈ 31.3 µM); in data set [9] it was 10 µg/mL (≈ 16.5 µM); in [10] it was 0.6 µg/mL (≈ 0.987 µM); in [11], 8 µg/mL (≈ 13.2 µM); in data set [14], greater than 20 µg/mL. Moreover, the pKa (commonly the pH at which an ionisable group is half protonated) in data set [15] (first of two titratable groups) turned out to be 4.8; in data set [15] (second of two titratable groups), 12.2.
